Calls of active or inactive are those of the source.
Tests used:
A-375 [1] = test: A375 melanoma cell viability reduction, dose response, counter-screen for MITF modulator project, cherry-pick samples, set 2 (AID 540335); type: functional, cell-based; conditions: Homo sapiens
[2] = Luminescence Cell-Based Dose Response HTS to Identify Activators of Luciferase Translation or Activity in H4 […] Cells. [Related pubchem assays: 1829 (Project Summary), 1814 (Primary HTS)]; type: functional
A-375 [3] = test: MITF: Counter assay: A375 proliferation Measured in Cell-Based System Using Plate Reader - 2084-03_Inhibitor_Dose_DryPowder_Activity. [Related pubchem assays (depositor defined):AID488944]; type: functional; conditions: Homo sapiens
H4 = test: Luminescence Cell-Based Dose Response HTS to Identify Activators of 5'UTR Stem-Loop Driven Prion Protein mRNA Translation in H4 Neuroglioblastoma Cells. [Related pubchem assays: 1829 (Project Summary), 1814 (Primary HTS)]; type: functional; conditions: Homo sapiens
[4] = Luminescence Cell-Based Dose Confirmation HTS to Identify Activators of 5'UTR Stem-Loop Driven Alpha-Synuclein mRNA Translation in H4 Neuroglioblastoma Cells. [Related pubchem assays: 1829 (Project Summary), 1814 (Primary HTS)]; type: functional
[5] = inhibitors of Trypanosoma cruzi host-cell infection, confirmation, beta-gal luminescence, NIH3T3 host cells (AID 2630); type: functional, cell-based; conditions: Mus musculus
INS1 [6] = test: beta cell apoptosis inhibitors, cytokine rescue, dose response, luminescence, retest (AID 449756); type: functional, cell-based; conditions: Rattus norvegicus;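 note: cell death triggered by IL-1 beta plus TNF-alpha plus IFN-gamma mixture; protective hits raise ATP signal compared with cytokine alone wells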
[7] = Luminescence Cell-Based/Microorganism Confirmation at Dose of Inhibitors of Trypanosoma cruzi Infection. [Related pubchem assays: 1885, 1968 ]; type: functional
[8] = cytotoxicity toward NIH3T3 fibroblasts, dose response, counter-screen, cell-based, ATP luminescence, mouse fibroblasts (AID 2010); type: functional;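 note: cells exposed to compound for about 90 hours before reading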
[9] = Luminescence Cell-Based Secondary HTS screen to identify cytotoxic compounds of NIH3T3 cells. [Related pubchem assays: 1885, 1968 ]; type: functional
[10] = inhibitors of intracellular T. cruzi replication, confirmation, NIH3T3 host cells, beta-gal luminescence (AID 2044); type: functional, cell-based;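 note: intracellular parasites grown in NIH/3T3 mouse fibroblasts as host cells; luminescent beta-galactosidase reporter signal from transgenic T. cruzi replicating inside host cells; inhibitors lower the luminescence signal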
[11] = biological target: T1, Microphthalmia-associated transcription factor (Homo sapiens, UniProt O75030); test: TRPM1 promoter luciferase signal decrease, dose response, MITF inhibitor project, cell-based, SK-MEL-5, cherry-picked, set 3 (AID 493073); type: functional
T1 sequence (O75030 whole entry): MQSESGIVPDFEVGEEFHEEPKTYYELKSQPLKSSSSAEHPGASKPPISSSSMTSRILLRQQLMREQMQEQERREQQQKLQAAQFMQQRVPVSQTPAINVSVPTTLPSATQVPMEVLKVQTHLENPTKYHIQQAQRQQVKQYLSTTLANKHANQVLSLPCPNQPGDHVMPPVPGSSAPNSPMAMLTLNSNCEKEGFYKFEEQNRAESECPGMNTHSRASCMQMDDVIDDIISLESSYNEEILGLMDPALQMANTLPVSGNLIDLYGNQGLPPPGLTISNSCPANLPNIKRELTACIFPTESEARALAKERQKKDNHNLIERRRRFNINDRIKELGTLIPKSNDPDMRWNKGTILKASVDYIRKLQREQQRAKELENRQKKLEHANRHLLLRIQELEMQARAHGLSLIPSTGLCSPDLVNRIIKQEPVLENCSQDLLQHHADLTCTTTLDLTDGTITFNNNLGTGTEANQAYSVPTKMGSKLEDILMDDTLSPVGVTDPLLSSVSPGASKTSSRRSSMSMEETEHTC

INS1 [12] = test: protection from cytokine-induced mitochondrial depolarization, dose response, cell-based, INS-1E, JC-1 fluorescence ratio, dry powder (AID 488931); type: functional; conditions: Rattus norvegicus
[13] = biological target: T2, Short transient receptor potential channel 4 (Mus musculus, UniProt Q9QUQ5); test: SAR Analysis for the identification of selective inhibits of the transient receptor potential cation channel C4 (TRPC4): Automated Electrophysiology_2. [Related pubchem assays (depositor defined):AID2256]; type: functional
T2 sequence (Q9QUQ5 whole entry): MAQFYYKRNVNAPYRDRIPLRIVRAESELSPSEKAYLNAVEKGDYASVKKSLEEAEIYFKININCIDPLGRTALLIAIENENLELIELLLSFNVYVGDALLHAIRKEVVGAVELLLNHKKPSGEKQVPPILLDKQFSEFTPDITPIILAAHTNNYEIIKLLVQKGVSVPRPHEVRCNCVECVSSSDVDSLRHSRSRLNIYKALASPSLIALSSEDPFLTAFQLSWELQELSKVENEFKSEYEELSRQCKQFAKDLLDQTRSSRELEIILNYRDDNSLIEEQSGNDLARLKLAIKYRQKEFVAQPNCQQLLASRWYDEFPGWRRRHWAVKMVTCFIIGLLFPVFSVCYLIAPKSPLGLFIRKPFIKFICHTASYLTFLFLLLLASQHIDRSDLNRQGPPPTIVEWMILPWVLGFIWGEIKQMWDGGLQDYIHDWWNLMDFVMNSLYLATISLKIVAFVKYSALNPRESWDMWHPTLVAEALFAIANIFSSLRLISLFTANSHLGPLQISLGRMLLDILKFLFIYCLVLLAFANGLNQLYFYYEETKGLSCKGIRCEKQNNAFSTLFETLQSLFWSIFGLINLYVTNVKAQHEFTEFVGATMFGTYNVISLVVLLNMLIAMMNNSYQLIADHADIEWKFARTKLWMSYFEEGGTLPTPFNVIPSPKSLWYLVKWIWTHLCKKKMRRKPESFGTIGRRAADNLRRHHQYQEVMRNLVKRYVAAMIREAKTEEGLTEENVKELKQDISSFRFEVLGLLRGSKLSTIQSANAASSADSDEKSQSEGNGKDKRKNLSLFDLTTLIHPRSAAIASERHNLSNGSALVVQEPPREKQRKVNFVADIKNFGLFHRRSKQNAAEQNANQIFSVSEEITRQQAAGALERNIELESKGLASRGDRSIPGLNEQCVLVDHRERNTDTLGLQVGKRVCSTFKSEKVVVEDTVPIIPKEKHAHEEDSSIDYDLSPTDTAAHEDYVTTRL

[14] = biological target: T2, Short transient receptor potential channel 4; test: TRPC4 inhibitor concentration-response, dose response, cell-based, HEK293 TRPC4/mu-opioid, DAMGO stimulus, Fluo-4 (AID 492994); type: functional
Escherichia coli [15] = test: microbe, parasite or virus in culture
Escherichia coli [16] = test: microbe, parasite or virus in culture; remark: listed apart in the source
[17] = biological target: Lysine-specific demethylase 4A (Homo sapiens, UniProt O75164); test: JMJD2A histone demethylase inhibitors, dose response, selectivity assay for GASC-1 inhibitor project, biochemical, DELFIA europium, cherry-picked samples (AID 488840)
Lysine-specific demethylase 4A, sequence (O75164 whole entry): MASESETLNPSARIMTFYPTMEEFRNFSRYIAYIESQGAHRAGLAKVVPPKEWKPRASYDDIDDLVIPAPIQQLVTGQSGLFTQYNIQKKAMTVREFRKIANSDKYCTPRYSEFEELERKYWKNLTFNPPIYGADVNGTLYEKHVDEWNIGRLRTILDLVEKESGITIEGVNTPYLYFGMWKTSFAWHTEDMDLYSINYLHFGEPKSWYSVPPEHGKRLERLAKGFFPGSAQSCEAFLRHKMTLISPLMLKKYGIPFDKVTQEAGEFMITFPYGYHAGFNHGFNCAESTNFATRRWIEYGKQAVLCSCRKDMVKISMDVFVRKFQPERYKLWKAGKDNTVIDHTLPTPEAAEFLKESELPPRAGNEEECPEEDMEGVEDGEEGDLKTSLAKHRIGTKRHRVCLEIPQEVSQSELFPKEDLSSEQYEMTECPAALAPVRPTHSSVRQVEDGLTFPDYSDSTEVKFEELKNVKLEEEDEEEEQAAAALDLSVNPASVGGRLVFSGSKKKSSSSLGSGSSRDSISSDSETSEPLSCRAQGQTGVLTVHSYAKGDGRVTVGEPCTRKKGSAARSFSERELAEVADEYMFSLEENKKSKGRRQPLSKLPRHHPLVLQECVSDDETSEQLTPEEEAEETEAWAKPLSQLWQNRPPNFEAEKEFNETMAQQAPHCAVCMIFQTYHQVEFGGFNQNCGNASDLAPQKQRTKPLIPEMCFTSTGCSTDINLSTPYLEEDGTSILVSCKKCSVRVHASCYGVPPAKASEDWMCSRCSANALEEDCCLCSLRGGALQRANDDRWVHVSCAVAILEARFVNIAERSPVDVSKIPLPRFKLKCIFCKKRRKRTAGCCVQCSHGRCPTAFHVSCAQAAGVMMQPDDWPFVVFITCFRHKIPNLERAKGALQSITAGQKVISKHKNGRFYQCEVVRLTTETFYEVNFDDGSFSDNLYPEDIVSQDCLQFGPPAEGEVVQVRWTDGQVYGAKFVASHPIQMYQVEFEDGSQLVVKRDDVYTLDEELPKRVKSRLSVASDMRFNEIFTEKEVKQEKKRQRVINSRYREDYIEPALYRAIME

[18] = biological target: T3, Ubiquitin-conjugating enzyme E2 N (Homo sapiens, UniProt P61088); type: functional;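 note: Dose-response confirmation in a TR-FRET assay detecting UBC13-driven polyubiquitin chain formation, inhibition measured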
T3 sequence (P61088 whole entry): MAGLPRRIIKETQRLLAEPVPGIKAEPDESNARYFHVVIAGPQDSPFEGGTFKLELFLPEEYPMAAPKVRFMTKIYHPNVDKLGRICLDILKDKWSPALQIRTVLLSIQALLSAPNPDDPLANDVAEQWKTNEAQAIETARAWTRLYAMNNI

With `Cc1cnn(C(S)=NCCc2ccccc2)c1` the AC50 (A-375 [1]) was > 35 µM (active), the EC50 [2] was 25.4 µM (active) and the AC50 (A-375 [3]) was > 35 µM (active). The EC50 (H4) was > 120 µM (not active) and the EC50 [4] was 27.3 µM (active).

With `Cc1ccc(NC(=O)CCC(=O)N/N=C/c2ccc([N+](=O)[O-])o2)cc1C` the EC50 [5] was 0.032 µM (active), the AC50 (INS1 [6]) was 7.44 µM (active) and the EC50 [7] was 0.032 µM (active). The EC50 (cells) was 0.016 µM (active), the EC50 [8] was > 30 µM (not active) and the EC50 [9] was > 195 µM (not active). The EC50 [10] was < 0.1 µM (active) and the AC50 [11] was 6.25 µM (active).

In the case of `COc1ccc(S(=O)(=O)N(C)C[C@@H]2Oc3c(NC(=O)Nc4ccc5c(c4)OCO5)cccc3C(=O)N([C@@H](C)CO)C[C@H]2C)cc1`, the AC50 (INS1 [12]) is reported as 98.3 µM (active).

With `CCN(CC)c1cc(C)c2ccccc2n1` the IC50 [13] was 7.54 µM (active) and the IC50 [14] was 5.24 µM (active).

With `C[C@@H](CN1CCC[C@H]1CN1C(N)=NC[C@@H]1Cc1ccccc1)N1C[C@@H](Cc2ccccc2)N(CCc2ccc(Cl)c(Cl)c2)C1=N` the AC50 (Escherichia coli [15]) was 24.1 µM (active), the AC50 (Escherichia coli [16]) was 15.6 µM (active) and the AC50 [17] was 9.21 µM (active). For the same compound, the IC50 [18] was > 20 µM (inactive).

— ChEMBL document CHEMBL1201862, “PubChem BioAssay data set” (2004)
